In PubChem BioAssay AID2060360 (Molecular Pharmacology Branch, DTP, NCI, 2025):
Several values for one entry are separate records, joined by “and”; a condition that tells them apart may be missing. Identical values can stand only once.

Test system: 282377-053-R-J1-PDC tumor spheroids, viability
Assay: Anticancer human tumor 282377-053-R-J1-PDC patient-derived colon adenocarcinoma cell line growth inhibition [TAK]
Conditions: spheroids with HUVEC and MSC; for viability, T/C: stronger effect = lower value; for IC50: curve of compound
From the text: Combinatorial screen of targeted agents with TAK-243 and ipatasertib in multi-cell type tumor spheroids
A high-throughput screen of multi-cell type tumor spheroids was designed to identify active combinations of targeted small molecules and TAK-243 or ipatasertib. Complex spheroids include a stromal component modeled by human endothelial cells (HUVEC) and fibroblasts modeled by human mesenchymal stem cells (MSCs). The concentration ranges selected for each drug and investigational agent were based upon clinically achievable concentrations if the clinical Cmax of the agent was known.
Compounds. The drugs and investigational agents: TAK-243 (785004), ipatasertib (767898), everolimus (733504), selumetinib (741078), bortezomib (756655), trametinib (758246), ixazomib (758254), vemurafenib (761431), dabrafenib (764134), sapanisertib (764658), alpelisib (765974), and copanlisib (816437), were obtained from the National Cancer Institute (NCI) Developmental Therapeutics Program Chemical Repository. The FDA-approved anticancer drug set is available from the NCI Developmental Therapeutics Program. […] The stock solutions were prepared in dimethyl sulfoxide (DMSO, Sigma-Aldrich, St. Louis, MO, cat. D2650) at 800-fold the tested concentration and stored at -70 degrees C prior to their use. All drugs and investigational agents were tested over a range starting from a high concentration at or near the clinical Cmax and decreasing in half-log increments. If the clinical Cmax for an agent had not been determined, the highest concentration tested was 10 microM.
NCI60 Cell Culture. NCI60 cell lines were obtained from the NCI Developmental Therapeutics Program Tumor Repository. For each lot of cells, the Repository performed Applied Biosystems AmpFLSTR Identifiler testing with PCR amplification to confirm consistency with the published Identifier STR profile for each cell line. Cells were kept in continuous culture for no more than 20 passages. The optimal seeding densities for each of the cell lines at each time point assessed were determined prior to performing the concentration response studies. Briefly, the NCI60 human tumor lines were grown as monolayers in RPMI 1640 medium supplemented with 10% FBS and 2 mmol/L L-glutamine.
An additional 2 lines were from the NCI60 cell line panel including melanomas, MALME-3M and SK-MEL-2. Pooled donor human umbilical vein endothelial cells (HUVEC, Lonza, cat. CC-2519) and human mesenchymal stem cells (hMSC, Lonza, cat. PT-2501) were purchased from Lonza (Walkersville, MD).
PDMR cell lines were grown in complete medium (DC medium): Dulbecco's modified Eagle's medium (DMEM)/F12 supplemented with 5% fetal bovine serum (FBS), 2 mM L-glutamine, 100 U/mL penicillin and 100 µg/ml streptomycin, 0.4 µg/ml hydrocortisone, 10 ng/ml epidermal growth factor (EGF) recombinant human protein, 24 µg/mL adenine, and 0.1 mg/mL primocin. During culture from frozen stock vials, PDMR cells were cultured in the same medium containing 10 µM Y-27632 (see Table 3). The PDCs were cultured in complete DMEM/F12 media without 10 microM Y-27632 dihydrochloride for at least two passages prior to the screen. The pooled donor HUVEC and hMSC were cultured in endothelial cell growth medium 2 (PromoCell, Heidelberg, Germany, cat. C-22011) and mesenchymal stem cell growth medium 2 (PromoCell, cat. C-28009), respectively. For all experiments, HUVEC and hMSC were used at passages </=5.
For the pre-screen, cell seeding densities were determined from a titration spanning the range from 5,000 to 313 cells per well. The mct-spheroids including 60% malignant cells, 25% HUVEC and 15% MSC dispensed as a mixture into U-bottom Ultra-Low Attachment 384-well plates (Corning, NY)
High-throughput Drug Combination Screening.
Prior to their inoculation into 384-well plates, malignant cells, HUVEC, and hMSC were removed from T flasks using TrypLE express (Thermo Fisher Scientific, cat. 12605036) and harvested by centrifugation for 5 min at 233 x g. […]
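Further: spheroids exposed to drugs for seven days before readout.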

Compound	viability, T/C (compound 0.000316 µM)	viability, T/C (compound 0.001 µM)	viability, T/C (compound 0.00316 µM)	viability, T/C (compound 0.01 µM)	viability, T/C (compound 0.0316 µM)	viability, T/C (compound 0.1 µM)	IC50 [µM]	viability, T/C (compound 0.316 µM)	viability, T/C (compound 1 µM)	viability, T/C (compound 3.16 µM)	viability, T/C (compound 10 µM)	viability, T/C (compound 31.6 µM)	viability, T/C (compound 100 µM)
COC1CC2CCC(C)C(O)(O2)C(=O)C(=O)N2CCCCC2C(=O)OC(C(C)CC2CCC(OCCO)C(OC)C2)CC(=O)C(C)C=C(C)C(O)C(OC)C(=O)C(C)CC(C)C=CC=CC=C1C (centres undefined)	101% and 99.3%	101% and 97.3%	97.6% and 98.6%	102% and 103%	94.2% and 95.4%	101% and 97.8%	> 0.1	–	–	–	–	–	–
CCCS(=O)(=O)Nc1ccc(F)c(C(=O)c2c[nH]c3ncc(-c4ccc(Cl)cc4)cc23)c1F	–	–	–	–	–	–	> 100	86.4% and 86.2%	82.3% and 82.7%	82.7% and 85.6%	21.3% and 27%	89.4% and 84.6%	75.5% and 94%
